Reference: patent publication US20200338045A1, “ISOINDOLINE COMPOSITIONS AND METHODS FOR TREATING NEURODEGENERATIVE DISEASE” (priority 2017, published 2020)

Assay: Phase 1b/2a clinical trial (COG0102): safety and tolerability
Assay type: in vivo, human
Details: for Mild TEAEs-n (%) / Moderate TEAEs-n (%) / SAEs-n (%) / Severe TEAEs-n (%) / TEAEs-n (%): once daily 28 days
Procedure: Safety and pharmacokinetics were primary objectives of the study, with changes in molecular biomarkers and cognitive outcomes identified as an exploratory objective. […]
This trial (ClinicalTrials.gov NCT02907567) was a randomized, double-blind, placebo-controlled clinical trial in mild to moderate Alzheimer's patients (MMSE 18-26) (See FIG. 1 for clinical trial design). The trial was conducted at six sites in Australia. Patients were randomized into placebo (n=5) or CT1812-treated groups: 90 mg (n=4), 280 mg (n=5) or 560 mg (n=5) and treated once daily for 28 days. Clinical chemistry was done at Sydpath (Sydney, AU). Pharmacokinetics were done at CPR Pharma Services (Adelaide, AU). Cerebrospinal fluid samples were taken at screening and day 21-28 of treatment and aliquoted. Plasma samples were taken at screening or Day 1 (one sample) and day 14-28, then spun down to separate plasma and aliquoted. One set of CSF samples was analyzed for Alzheimer's disease biomarkers; protein measurements (Aβ42, A1340, total tau, tau phosphorylated at threonine 181 (phosphorylated tau), NFL and neurogranin) were performed using commercially available ELISA assays from Fujirebio according to the manufacturer's instructions (INNOTEST β-AMYLOID(1-42), INNOTEST β-AMYLOID(1-40), INNOTEST hTau Ag, INNOTEST PHOSPHO-TAU(181P), Uman Diagnostics NFL assay). Neurogranin was measured with a sandwich ELISA method using antibodies Ng2 and Ng22 developed at the University of Gotteborg (Kvartsberg et al. 2015). Identical aliquots of CSF, and plasma were analyzed for protein expression changes via LC/MSMS at Caprion (see below).

## CC(C)(C)Oc1cc(CCC(C)(C)N2Cc3ccc(S(C)(=O)=O)cc3C2)ccc1O [CT1812]
90 mg (as in Table 3)
  Headache-n (%): 1 (25%) n (%)
  Lymphocytopenia-n (%): 0 (0%) n (%)
  Nausea-n (%): 0 (0%) n (%)
  Vomiting-n (%): 0 (0%) n (%)
90 mg (n = 4)
  Mild TEAEs-n (%): 4 (100%) n (%)
  Moderate TEAEs-n (%): 0 (0%) n (%)
  SAEs-n (%): 0 (0%) n (%)
  Severe TEAEs-n (%): 0 (0%) n (%)
  TEAEs-n (%): 3 (75%) n (%)
280 mg (as in Table 3)
  Headache-n (%): 0 (0%) n (%)
  Lymphocytopenia-n (%): 0 (0%) n (%)
  Nausea-n (%): 0 (0%) n (%)
  Vomiting-n (%): 0 (0%) n (%)
280 mg (n = 5)
  Mild TEAEs-n (%): 3 (60%) n (%)
  Moderate TEAEs-n (%): 1 (20%) n (%)
  SAEs-n (%): 0 (0%) n (%)
  Severe TEAEs-n (%): 0 (0%) n (%)
  TEAEs-n (%): 4 (80%) n (%)
560 mg (as in Table 3)
  Headache-n (%): 2 (40%) n (%)
  Nausea-n (%): 2 (40%) n (%)
  Vomiting-n (%): 2 (40%) n (%)
560 mg (n = 5)
  Mild TEAEs-n (%): 5 (100%) n (%)
  Moderate TEAEs-n (%): 3 (60%) n (%)
  SAEs-n (%): 0 (0%) n (%)
  Severe TEAEs-n (%): 0 (0%) n (%)
  TEAEs-n (%): 5 (100%) n (%)
90, 280 and 560 mg once daily 28 days, mild to moderate Alzheimer's patients
  safety and tolerability: generally safe and well tolerated
One participant at 560 mg, resolved by end of study, no increase in bilirubin
  ALT: ~4.7 ×ULN
